Read-outs that look alike come from different tables or passages of the source.
Assay: Ocular tissue concentrations (aqueous humor, vitreous humor, iris, retina, choroid, cornea) after topical ocular, subcutaneous and intravitreal administration
Assay type: in vivo, New Zealand White rabbits
Conditions: New Zealand White, rabbit; for concentration at 2 h / concentration at 4 h / concentration at 0.5 h / concentration at 1 h: subcutaneous, 5 mg/kg/dose, subcutaneous 5 mg/kg/dose; for concentration at 6 hr / concentration at 24 hr / concentration at 48 hr / concentration at 72 hr: other: intravitreal, 2.5 mg/eye
Procedure: To measure the concentration of Compound 1 in plasma and ocular tissues following topical ocular, subcutaneous, and intravitreal administration, New Zealand White rabbits were administered Compound 1, and plasma and ocular samples were collected at pre-determined time points. Compound 1 formulations were prepared fresh on each day of dosing.
Ocular tissue samples from both eyes of each animal were collected and weights were recorded. Plasma and ocular tissue sample concentrations of Compound 1 were determined by LC-MS/MS.
New Zealand White rabbits weighing 2.5 to 3.5 kg were used on this study. Rabbits were housed one per cage. Animals were not fasted and only healthy animals with no ocular illness were used. Two rabbits per group were sacrificed at each of four ocular tissue sampling time points for a total of eight rabbits per group.
Animals were anesthetized for ocular (topical) and intravitreal dosing following the 12IA7 IACUC protocol. Each rabbit received a bolus dose of test formulation either via topical ocular administration 3 times daily on Days 1 and 2 (at 0, 6, and 12 hours), and once on Day 3 (at 0 hours) into both eyes; via intravitreal administration into both eyes once on Day 1 (at 0 hours); or via subcutaneous administration 2 times daily on Days 1 and 2 (at 0 and 8 hours) and once daily on Day 3 (at 0 hours). Doses were given within an approximately 1 hour window each day where applicable.
On Day 1, for intravitreal administration, or on Day 3, for topical ocular and subcutaneous administration, at the appropriate ocular tissue collection time points, animals were euthanized and both eyes were enucleated immediately. Following enucleation, each eye was rinsed with phosphate-buffered saline. Ocular tissue samples from both eyes of each animal were collected at predetermined time points and weights were recorded. All the samples were frozen immediately on dry ice, and stored at −60° C. to −80° C. pending bioanalysis.
An LC-MS/MS method was developed for the determination of Compound 1 in rabbit aqueous tissues (plasma, aqueous and vitreous humor) and solid ocular tissue samples. A pre-study standard curve was analyzed to determine the specificity, range, and lower limit of quantitation of the method. Plasma and tissue homogenate study samples were extracted and analyzed. All the samples were treated identically to the standards.
One eight-point standard curve was used in each analytical batch. To be accepted, each batch must have had at least five of eight standards with accuracy within ±20% of nominal, except at the lower limit of quantification (LLOQ), where ±25% was acceptable.
Concentration versus time data is plotted in FIGS. 3-16. All data are expressed as ng/g of the free drug. Samples that were below the limit of quantitation (0.2 ng/mL) were not used in the calculation of averages.

[1] = choroid, TABLE 16: Choroid, free acid, Group 3, read-out: Choroid Average
[2] = cornea homogenate, Cornea homogenate, OD, sodium salt, intravitreal 2.5 mg/eye, Group 4, read-out: Cornea Conc. (ng/mL) OD
[3] = cornea homogenate, Cornea homogenate, OS, sodium salt, intravitreal 2.5 mg/eye, Group 4, read-out: Cornea Conc. (ng/mL) OS
[4] = cornea homogenate, Cornea homogenate, right eye, intravitreal 2.5 mg/eye (group 5), individual animals, read-out: Conc. (ng/mL) OD
[5] = cornea homogenate, Cornea homogenate, left eye, intravitreal 2.5 mg/eye (group 5), individual animals, read-out: Conc. (ng/mL) OS
[6] = cornea homogenate, Cornea homogenate, OD, free acid, Group 3, read-out: Cornea Conc. (ng/mL) OD
[7] = cornea homogenate, Cornea homogenate, OS, free acid, Group 3, read-out: Cornea Conc. (ng/mL) OS
[8] = cornea homogenate, Cornea homogenate, OS, sodium salt, Group 2, read-out: Cornea Conc. (ng/mL) OS
[9] = cornea homogenate, Cornea homogenate, OD, sodium salt, Group 2, read-out: Cornea Conc. (ng/mL) OD
[10] = cornea homogenate, TABLE 16: Cornea homogenate, OD, free acid, Group 3, read-out: Cornea Conc. (ng/mL) OD
[11] = cornea homogenate, TABLE 16: Cornea homogenate, OS, free acid, Group 3, read-out: Cornea Conc. (ng/mL) OS
[12] = cornea, Cornea, OD, sodium salt, intravitreal 2.5 mg/eye, Group 4, read-out: Cornea Conc. (ng/g) OD
[13] = cornea, Cornea, OS, sodium salt, intravitreal 2.5 mg/eye, Group 4, read-out: Cornea Conc. (ng/g) OS
[14] = cornea, Cornea, average, intravitreal 2.5 mg/eye (group 5), read-out: Avg.
[15] = cornea, Cornea, right eye, intravitreal 2.5 mg/eye (group 5), individual animals, read-out: Conc. (ng/g) OD
[16] = cornea, Cornea, sodium salt, intravitreal 2.5 mg/eye, Group 4, read-out: Cornea Avg.
[17] = cornea, Cornea, left eye, intravitreal 2.5 mg/eye (group 5), individual animals, read-out: Conc. (ng/g) OS
[18] = cornea, Cornea, OD, free acid, Group 3, read-out: Cornea Conc. (ng/g) OD
[19] = cornea, Cornea, OS, sodium salt, Group 2, read-out: Cornea Conc. (ng/g) OS
[20] = cornea, Cornea, free acid, Group 3, read-out: Cornea Average
[21] = cornea, Cornea, sodium salt, Group 2, read-out: Cornea Average
[22] = cornea, Cornea, OD, sodium salt, Group 2, read-out: Cornea Conc. (ng/g) OD
[23] = cornea, TABLE 16: Cornea, OD, free acid, Group 3, read-out: Cornea Conc. (ng/g) OD
[24] = cornea, TABLE 16: Cornea, free acid, Group 3, read-out: Cornea Average

- concentration at 2 h (choroid, TABLE 16: Choroid, OS, free acid, Group 3, read-out: Choroid Conc. (ng/g) OS): 53.2 ng/g
- concentration at 2 h [1]: 47.7 ng/g
- concentration at 4 h (choroid, TABLE 16: Choroid, OD, free acid, Group 3, read-out: Choroid Conc. (ng/g) OD): 53 ng/g
- concentration at 4 h [1]: 61 ng/g
- concentration at 6 hr [2]: 6300 ng/mL
- concentration at 6 hr [3]: 6940 ng/mL
- concentration at 6 hr [4]: 7910 ng/mL
- concentration at 24 hr [2]: 2180 ng/mL
- concentration at 24 hr [3]: 1560 ng/mL
- concentration at 24 hr [5]: 1190 ng/mL
- concentration at 24 hr [4]: 1520 ng/mL
- concentration at 48 hr [2]: 1050 ng/mL
- concentration at 48 hr [3]: 662 ng/mL
- concentration at 48 hr [5]: 293 ng/mL
- concentration at 48 hr [4]: 437 ng/mL
- concentration at 0.5 h [6]: 0.55 ng/mL
- concentration at 0.5 h [7]: 0.897 ng/mL
- concentration at 0.5 h [8]: 2.46 ng/mL
- concentration at 1 h [6]: 1.11 ng/mL
- concentration at 1 h [9]: 2.37 ng/mL
- concentration at 1 h [8]: 4.52 ng/mL
- concentration at 2 h [6]: 0.514 ng/mL
- concentration at 2 h [8]: 0.998 ng/mL
- concentration at 4 h [6]: 0.942 ng/mL
- concentration at 4 h [9]: 0.752 ng/mL
- concentration at 4 h [7]: 2.51 ng/mL
- concentration at 4 h [8]: 0.784 ng/mL
- concentration at 0.5 h [10]: 0.55 ng/mL
- concentration at 0.5 h [11]: 0.897 ng/mL
- concentration at 1 h [10]: 1.11 ng/mL
- concentration at 2 h [10]: 0.514 ng/mL
- concentration at 4 h [10]: 0.942 ng/mL
- concentration at 4 h [11]: 2.51 ng/mL
- concentration at 6 hr [12]: 69300 ng/g
- concentration at 6 hr [13]: 76300 ng/g
- concentration at 6 hr [14]: 54600 ng/g
- concentration at 6 hr [15]: 87000 ng/g
- concentration at 6 hr [16]: 71400 ng/g
- concentration at 24 hr [12]: 24000 ng/g
- concentration at 24 hr [13]: 17200 ng/g
- concentration at 24 hr [14]: 17300 ng/g
- concentration at 24 hr [17]: 13100 ng/g
- concentration at 24 hr [15]: 16700 ng/g
- concentration at 24 hr [16]: 23700 ng/g
- concentration at 48 hr [12]: 11600 ng/g
- concentration at 48 hr [13]: 7280 ng/g
- concentration at 48 hr [14]: 4630 ng/g
- concentration at 48 hr [17]: 3220 ng/g
- concentration at 48 hr [15]: 4810 ng/g
- concentration at 48 hr [16]: 7530 ng/g
- concentration at 72 hr [14]: 762 ng/g
- concentration at 72 hr [16]: 421 ng/g
- concentration at 0.5 h [18]: 6.05 ng/g
- concentration at 0.5 h (cornea, Cornea, OS, free acid, Group 3, read-out: Cornea Conc. (ng/g) OS): 9.87 ng/g
- concentration at 0.5 h [19]: 27.1 ng/g
- concentration at 0.5 h [20]: 7.96 ng/g
- concentration at 0.5 h [21]: 19.4 ng/g
- concentration at 1 h [18]: 12.2 ng/g
- concentration at 1 h [22]: 26.1 ng/g
- concentration at 1 h [19]: 25.3 ng/g
- concentration at 1 h [20]: 12.2 ng/g
- concentration at 1 h [21]: 31.1 ng/g
- concentration at 2 h [18]: 5.65 ng/g
- concentration at 2 h [22]: 11.7 ng/g
- concentration at 2 h [19]: 11 ng/g
- concentration at 2 h [20]: 5.65 ng/g
- concentration at 2 h [21]: 9.45 ng/g
- concentration at 4 h [18]: 10.4 ng/g
- concentration at 4 h [22]: 8.27 ng/g
- concentration at 4 h [19]: 8.62 ng/g
- concentration at 4 h [20]: 15.8 ng/g
- concentration at 4 h [21]: 10.1 ng/g
- concentration at 0.5 h [23]: 6.05 ng/g
- concentration at 0.5 h (cornea, TABLE 16: Cornea, OS, free acid, Group 3, read-out: Cornea Conc. (ng/g) OS): 9.87 ng/g
- concentration at 0.5 h [24]: 7.96 ng/g
- concentration at 1 h [23]: 12.2 ng/g
- concentration at 1 h [24]: 12.2 ng/g
- concentration at 2 h [23]: 5.65 ng/g
- concentration at 2 h [24]: 5.65 ng/g
Compound: COC(=O)N[C@@H](Cc1ccccc1)C(=O)N[C@@H](Cc1ccc(NS(=O)(=O)O)cc1)c1csc(-c2cccs2)n1 [Compound 1]

From patent US11666558B2, “Methods of treating intraocular pressure with activators of Tie-2” (EyePoint Pharmaceuticals, Inc., priority 2015, dated 2023)
